Assay results taken from patent US12662707B2, “MYC amplification drives resistance to pan-RAS inhibitors in pancreatic cancer” (The Trustees of Columbia University in the City of New York, priority 2024, dated 2026).

Legend:
Type in all cases: in vivo, mouse
[1] = test system: human PDAC xenograft models; experiment: Human PDAC xenograft (CDX/PDX) tumor growth studies; conditions: 10 mg/kg daily
Method: Studies were conducted at the following CROs: GenenDesign (Shanghai, China), Pharmaron (Beijing, China), and Wuxi AppTec (SuZhou, China). All CDX/PDX mouse studies and procedures related to animal handling, care and treatment were conducted in compliance with all applicable regulations and guidelines of the relevant Institutional Animal Care and Use Committee (IACUC). Female BALB/c nude mice and NOD SCID mice 6-8 weeks old from Beijing Vital River/VR Laboratory Animal Co., LTD, Beijing AniKeeper Biotech Co., Ltd., and Shanghai Sino-British SIPPR/BK Laboratory Animal Co., LTD were used for these studies.
In order to generate subcutaneous xenograft tumors each mouse was inoculated at the right flank with tumor cells (2×10^6-1×10^7) in 100-200 μl of media/PBS supplemented with Matrigel (1:1). Treatments were started when the average tumor volume reached 150-250 mm^3 (for tumor growth evaluation) and 400-600 mm^3 (for single dose pharmacokinetic/pharmacodynamic (PK/PD) study). Tumor diameter was measured in two dimensions using a digital caliper, and the tumor volume in mm^3 was calculated using the formula: Volume=((width)2×length)/2. Mice on studies were weighed and tumors were measured 2 times a week.
The human primary cancer xenograft models were generated using fresh tumor fragments obtained from hospitals with informed consent from the patients in accordance with protocols approved by the Hospital Institutional Ethical Committee (IEC). The tumor fragments were serial passaged in BABL/c nude mice and then cryopreserved for further use. For this study, recovered tumor fragments of about 15-30 mm^3 in size from each model were implanted into right flanks of BALB/c nude mice. Treatment started when average tumor volume reached 150-250 mm^3.
To generate orthotopic xenograft tumors, survival surgeries were carried out and 2×10^6 5×10^6 luciferase-expressing tumor cells in 30-50 μL Media/Matrigel mixtures (1:1) were implanted directly into the mouse pancreas. Treatments were started when the tumors produced an average of 50-80×10^7 photon/second as measured by the in vivo imaging system (IVIS). All subsequent tumor measures were also conducted by IVIS. For routine monitoring, mice were injected intraperitoneally with 15 mg/mL (at 5 μL/g BW) of D-Luciferin (Perkin Elmer) and imaged, after which Living Image software (Perkin Elmer) was used to compute regions of interest (ROI) and tumor volumes.
Tumor-bearing animals were randomized and assigned into groups (n=3-10/group). Vehicle or RMC-7977 was administered via oral gavage daily at 10 mg/kg and animals were treated for 21-28 days. Studies were terminated early if tumor burden reached humane endpoint. Body weights were collected twice a week during the study. Means±s.e.m were plotted in the waterfall plots. For the single-dose pharmacokinetic/pharmacodynamic (PK/PD) study, mice were randomized and assigned into groups (n=3-6/dose/timepoint). A single dose of RMC-7977 was administered orally at 10 mg/kg, 25 mg/kg and 50 mg/kg. Tissues (including tumor, colon and skin) were harvested at indicated time points and either fixed in 10% formalin, embedded in Optimal Cutting Temperature (OCT; Sakura, 4583) solution or snap-frozen in LN2 for further analysis. Whole blood was transferred into K2EDTA Microtainer tubes (BD, 365974), incubated for 5 minutes and snap-frozen in LN2.

[2] = test system: KPCY-derived PDAC cell line (6499c4) allografts; experiment: KPCY 6499c4 syngeneic allograft studies
Method: All murine allograft studies and procedures related to animal handling, care and treatment were conducted in compliance with all applicable regulations and guidelines of the Institutional Animal Care and Use Committee (IACUC). Female C57BL/6J (strain 000664) mice aged 6-8 weeks from the Jackson Laboratory (Bar Harbor, ME USA) were used for these studies.
In order to generate subcutaneous (SC) allograft tumors, each mouse was inoculated in the right flank with 3×10^5 of KPCY 6499c4 tumor cells in 0.1 ml of Matrigel:PBS (1:1). Treatments were started when the average tumor size reached 140 mm^3. Tumor size was measured at two dimensions using a digital caliper, and the tumor volume in mm^3 was calculated using the formula: Volume=((width)2×length)/2. Mice on studies were weighed and tumors were measured 2 times a week.
To generate orthotopic allograft tumors, 5×10^4 KPCY 6499c4 tumor cells in 20 μL PBS/Matrigel mixtures (1:1) were implanted directly into the mouse pancreas through a laparoscopic incision. Treatments were started when the average tumor size reached […]. Body weights were measured and tumor growth was monitored by ultrasound twice weekly.
Tumor-bearing animals were randomized, assigned into groups (n=9-10/group), and treated daily via oral gavage with Vehicle or RMC-7977 (10 mg/kg, q.d.). For SC KPCY study, survival endpoint was defined as: tumor volume reaching 2000 mm^3 or mice showing any clinical signs, including severe ulceration. For orthotopic KPCY study, survival endpoint was defined as (1) mice showing any clinical signs including hunching or fluid in the abdomen, or (2) tumor dimensions exceeding the imaging frame of the ultrasound. Body weights were measured twice a week during the study. Tissue was harvested either at 4 hours or 24 hours after last dose and preserved as previously described (See Xenograft studies section).
To stain tissues collected from the KPCY allograft model, a Biocare IntelliPATH automation system was used, and primary antibodies were detected with the MACH4-HRP-polymer Detection System (Biocare, MRH534). Stained slides were scanned and digitized with a TissueScope LE (Huron Digital Pathology) whole slide scanner at 20× magnification. Image analysis was performed using HALO software from Indica Labs.

pERK in colon = experiment: pERK IHC in colon tissues of KPF/FC mice; conditions: KPF/FC cohort; 10 and 25 mg/kg dose levels
Method: Tumor formation in KPF/FC (KrasLSL.G12D/+; p53flox/flox; Pdx1-Cre) mice was monitored by bi-weekly palpations until the detection of a mass, which was then confirmed by ultrasound. Tumor-bearing mice were randomized and assigned into groups (n=3/dose/timepoint). Single dose of RMC-7977 was administered orally at 10 mg/kg, 25 mg/kg and 50 mg/kg. The same vehicle formulation was used for the control group. Whole blood and tissue (tumors and colons) were harvested at indicated time points preserved as previously described (See Xenograft studies section).
All tissues were fixed for up to 24 hours using 10% neutral buffered formalin and then moved to 70% ethanol for long term storage. All stainings were performed on 4-μm tissue sections. Sections were deparaffinized using a Leica XL ST5010 autostainer, after which slides were subjected to heat-activated epitope retrieval. To block endogenous peroxidases, 20 min incubation in 3% H2O2 (Fisher Scientific) was performed. Slides were further blocked in serum for 1 hour, and primary antibodies were added for overnight incubation at 4° C. The next day, slides were washed and incubated with ImmPRESS HRP Horse Anti-Rabbit IgG Polymer Detection Kit (Vector Laboratories, MP-7401) for 30 min. […] Quantitative analyses of IHC images were performed using ImageJ.

[3] = orthotopic CDA model, four hours after treatment

## CCn1c(-c2cc(N3CCN(C4CC4)CC3)cnc2[C@H](C)OC)c2c3cc(ccc31)-c1csc(n1)C[C@H](NC(=O)[C@H]1[C@@H]3COC[C@@H]31)C(=O)N1CCC[C@H](N1)C(=O)OCC(C)(C)C2 [RMC-7977]
[1]; 21-28 days
  models with tumor regressions: 7/10
[1]; HS-766T CDX
  response of KRASQ61H mutant HS-766T line in CDX setting: among the most responsive
[1]; all 10 models
  tolerability: well tolerated
[1]; all 10 models, 21-28 days
  anti-tumor activity: significant anti-tumor activity
[1]; treated animals
  body weight over time: stable body weight
[2]; 10 mg/kg q.d.
  tumor regressions: without inducing significant regressions
[2]; [3]
  apoptosis in tumors: increased apoptosis
  pERK levels in tumors: reduced pERK levels
[2]; subcutaneous or orthotopic, immunocompetent C57Bl/6 mice, 10 mg/kg q.d.
  tumor growth: diminished tumor growth
[2]; subcutaneous or orthotopic, 10 mg/kg q.d.
  overall survival: extended overall survival
pERK in colon
  RAS/MAPK activity (pERK) in colon tissues: rapidly restored to baseline
